Laboratory results taken from patent US9738591B2, “Antimicrobial compounds” (priority 2009, dated 2017).
Several values for one entry are separate records, joined by “and”; a condition that tells them apart may be missing. Identical values can stand only once.

Experiments:
[1] = tested on: Staphylococcus aureus NCTC 6571/ATCC 9144; test: Disk diffusion; conditions: for zones of inhibition with S aureus NCTC6571: applied at 10 mg/ml; for Zone of Inhibition: S. aureus NCTC 6571; for Zone of inhibition, S. aureus NCTC 6571: analogues in DMSO, protocol of Example 3
[2] = tested on: Shigella flexneri NCTC 8192; test: Disk diffusion; assay type: cell-based; conditions: S. flexneri NCTC 8192
Protocol: Plates were incubated at 35° C.

[3] = tested on: Aeromonas hydrophila NCTC 8049/ATCC 7966; test: Disk diffusion; conditions: A. hydrophila NCTC 8049
[4] = tested on: Citrobacter freundii NCTC 9750/ATCC 8090; test: Disk diffusion; conditions: C. freundii NCTC 9750
[5] = tested on: Escherichia coli NCTC 10538; test: Disk diffusion; conditions: E. coli NCTC 10538
[6] = tested on: Moraxella catarrhalis NCTC 3625; test: Disk diffusion; conditions: M. catarrhalis NCTC 3625
[7] = tested on: Proteus mirabilis NCTC 10975; test: Disk diffusion; conditions: P. mirabilis NCTC 10975
[8] = tested on: Pseudomonas aeruginosa NCTC 10662; test: Disk diffusion; conditions: P. aeruginosa NCTC 10662
[9] = tested on: Salmonella enterica subsp. enterica serovar Typhimurium ATCC 13311; test: Disk diffusion; conditions: S. typhimurium ATCC 13311
[10] = tested on: Stenotrophomonas maltophilia ATCC 13637; test: Disk diffusion; conditions: S. maltophilia ATCC 13637
[11] = tested on: Yersinia enterocolitica clinical 26609; test: Disk diffusion; conditions: Y. enterocolitica clinical 26609
[12] = tested on: Bacillus cereus ATCC 13061; test: Disk diffusion; conditions: B. cereus ATCC 13061
[13] = tested on: Bacillus subtilis ATCC 6633; test: Disk diffusion; conditions: B. subtilis ATCC 6633
[14] = tested on: Enterococcus faecalis NCTC 775; test: Disk diffusion; conditions: E. faecalis NCTC 775
[15] = tested on: Listeria monocytogenes NCTC 7973; test: Disk diffusion; conditions: L. monocytogenes NCTC 7973
[16] = tested on: Micrococcus luteus ATCC 10240; test: Disk diffusion; conditions: M. luteus ATCC 10240
[17] = tested on: Staphylococcus aureus (methicillin resistant) NCTC 10442; test: Disk diffusion; conditions: S. aureus NCTC 10442
[18] = tested on: Staphylococcus epidermidis ATCC 12228; test: Disk diffusion; conditions: S. epidermidis ATCC 1228
[19] = tested on: Staphylococcus xylosus ATCC 29971; test: Disk diffusion; conditions: S. xylosus ATCC 29971
[20] = tested on: Streptococcus pneumoniae ATCC 49619; test: Disk diffusion; conditions: S. pneumoniae ATCC 49619
[21] = tested on: Streptococcus pyogenes NCTC 8191; test: Disk diffusion; conditions: S. pyogenes NCTC 8191
E. coli NCTC 10418 = test: Disk diffusion; conditions: for Zone of Inhibition: E. coli NCTC 10418; for Zone of inhibition, E. coli NCTC 10418: analogues in DMSO, protocol of Example 3
[22] = tested on: A. calcoaceticus ATCC 15308; test: Disk diffusion
K. pneumoniae NCTC 10896 = test: Disk diffusion
[23] = tested on: V. cholerae non-01 clinical; test: Disk diffusion
C. albicans ATCC 90028 = test: Disk diffusion
[24] = tested on: S. typhimurium TA98, TA100 and TA1535; test: Ames Test for mutagenic activity, no metabolic activation; conditions: 5 μg/plate, duplicate plates

## O=C(O)c1ccc(/C=C/c2ccc(/C=C/c3ccc(C(=O)O)cc3)cc2)cc1 [DSB001]
[1]
  zones of inhibition with S aureus NCTC6571: no zones of inhibition

## O=C(O)c1ccc(CCc2cccc(CCc3ccc(C(=O)O)cc3)c2)cc1 [DSB004]
[1]
  zones of inhibition with S aureus NCTC6571: no zones of inhibition

## O=C(O)c1ccc(CCc2ccc(CCc3ccc(C(=O)O)cc3)cc2)cc1 [DSD002]
[1]
  zones of inhibition with S aureus NCTC6571: no zones of inhibition

## O=C(O)c1ccc(/C=C/c2cc(/C=C/c3ccc(C(=O)O)cc3)c(/C=C/c3ccc(C(=O)O)cc3)cc2/C=C/c2ccc(C(=O)O)cc2)cc1 [QSB001]
[2]
  Zone of Inhibition: 0 mm
[3]
  Zone of Inhibition: 7 mm
[4]
  Zone of Inhibition: 8.5 mm
[5]
  Zone of Inhibition: 7.5 mm
[6]
  Zone of Inhibition: 18 mm
[7]
  Zone of Inhibition: 0 mm
[8]
  Zone of Inhibition: 0 mm
[9]
  Zone of Inhibition: 8.5 mm
[10]
  Zone of Inhibition: 8 mm
[11]
  Zone of Inhibition: 7.5 mm
[12]
  Zone of Inhibition: 0 mm
[13]
  Zone of Inhibition: 0 mm
[14]
  Zone of Inhibition: 0 mm
[15]
  Zone of Inhibition: 0 mm
[16]
  Zone of Inhibition: 0 mm
[1]
  Zone of Inhibition: 8.5 mm
[17]
  Zone of Inhibition: 0 mm
[18]
  Zone of Inhibition: 0 mm
[19]
  Zone of Inhibition: 0 mm
[20]
  Zone of Inhibition: 9 mm
[21]
  Zone of Inhibition: 8 mm
E. coli NCTC 10418
  Zone of Inhibition: 7 mm
[22]
  Zone of Inhibition: 0 mm
K. pneumoniae NCTC 10896
  Zone of Inhibition: 8 mm
[23]
  Zone of Inhibition: 8 mm
C. albicans ATCC 90028
  Zone of Inhibition: 0 mm

## O=C(O)c1ccc(CCc2cc(CCc3ccc(C(=O)O)cc3)c(CCc3ccc(C(=O)O)cc3)cc2CCc2ccc(C(=O)O)cc2)cc1 [QSB002]
[1]
  zones of inhibition with S aureus NCTC6571: no zones of inhibition

## O=C(O)/C=C/c1cc(/C=C/C(=O)O)cc(/C=C/C(=O)O)c1 [TAB001]
[1]
  Zone of inhibition, S. aureus NCTC 6571: 0 mm

## O=C(O)/C=C/c1ccc(-c2cc(-c3ccc(/C=C/C(=O)O)cc3)cc(-c3ccc(/C=C/C(=O)O)cc3)c2)cc1 [TCB001]
[1]
  Zone of inhibition, S. aureus NCTC 6571: 11 mm

## CCCCOC(=O)/C=C/c1ccc(-c2cc(-c3ccc(/C=C/C(=O)OCCCC)cc3)cc(-c3ccc(/C=C/C(=O)OCCCC)cc3)c2)cc1 [TCB003]
[1]
  Zone of inhibition, S. aureus NCTC 6571: 0 mm

## CCCCOC(=O)/C=C/c1ccc(-c2nc(-c3ccc(/C=C/C(=O)OCCCC)cc3)nc(-c3ccc(/C=C/C(=O)OCCCC)cc3)n2)cc1 [TCT003]
[1]
  Zone of inhibition, S. aureus NCTC 6571: 0 mm
E. coli NCTC 10418
  Zone of inhibition, E. coli NCTC 10418: 0 mm

## CN(C)c1ccc(/C=C/c2cc(/C=C/c3ccc(N(C)C)cc3)cc(/C=C/c3ccc(N(C)C)cc3)c2)cc1 [TSB009]
[1]
  Zone of inhibition, S. aureus NCTC 6571: 0 mm

## COc1ccc(/C=C/c2cc(/C=C/c3ccc(OC)cc3)cc(/C=C/c3ccc(OC)cc3)c2)cc1 [TSB019]
[1]
  Zone of inhibition, S. aureus NCTC 6571: 0 mm
E. coli NCTC 10418
  Zone of inhibition, E. coli NCTC 10418: 0 mm

## CC(=O)Oc1ccc(/C=C/c2cc(/C=C/c3ccc(OC(C)=O)cc3)cc(/C=C/c3ccc(OC(C)=O)cc3)c2)cc1 [TSB023]
[1]
  Zone of inhibition, S. aureus NCTC 6571: 0 mm
E. coli NCTC 10418
  Zone of inhibition, E. coli NCTC 10418: 0 mm

## CC(=O)c1ccc(/C=C/c2cc(/C=C/c3ccc(C(C)=O)cc3)cc(/C=C/c3ccc(C(C)=O)cc3)c2)cc1 [TSB025]
[1]
  Zone of inhibition, S. aureus NCTC 6571: 0 mm
E. coli NCTC 10418
  Zone of inhibition, E. coli NCTC 10418: 0 mm

## Cc1ccc(/C=C/c2cc(/C=C/c3ccc(C)cc3)cc(/C=C/c3ccc(C)cc3)c2)cc1 [TSB037]
[1]
  Zone of inhibition, S. aureus NCTC 6571: 0 mm
E. coli NCTC 10418
  Zone of inhibition, E. coli NCTC 10418: 0 mm

## CC(C)Oc1ccc(/C=C/c2cc(/C=C/c3ccc(OC(C)C)c(OC(C)C)c3)cc(/C=C/c3ccc(OC(C)C)c(OC(C)C)c3)c2)cc1OC(C)C [TSB041]
[1]
  Zone of inhibition, S. aureus NCTC 6571: 0 mm
E. coli NCTC 10418
  Zone of inhibition, E. coli NCTC 10418: 0 mm

## COc1cc(/C=C/c2cc(/C=C/c3cc(OC)c(OC)c(OC)c3)cc(/C=C/c3cc(OC)c(OC)c(OC)c3)c2)cc(OC)c1OC [TSB049]
[1]
  Zone of inhibition, S. aureus NCTC 6571: 0 mm
E. coli NCTC 10418
  Zone of inhibition, E. coli NCTC 10418: 0 mm

## C(=C\c1cc(/C=C/c2ccncc2)cc(/C=C/c2ccncc2)c1)/c1ccncc1 [TSB053]
[1]
  Zone of inhibition, S. aureus NCTC 6571: 0 mm

## N#Cc1ccc(/C=C/c2cc(/C=C/c3ccc(C#N)cc3)cc(/C=C/c3ccc(C#N)cc3)c2)cc1 [TSB063]
[1]
  Zone of inhibition, S. aureus NCTC 6571: 0 mm
E. coli NCTC 10418
  Zone of inhibition, E. coli NCTC 10418: 0 mm

## C(=C\c1cc(/C=C/c2ccc(-c3nnn[nH]3)cc2)cc(/C=C/c2ccc(-c3nnn[nH]3)cc2)c1)/c1ccc(-c2nnn[nH]2)cc1 [TSB065]
[1]
  Zone of inhibition, S. aureus NCTC 6571: 14 mm
E. coli NCTC 10418
  Zone of inhibition, E. coli NCTC 10418: 0 mm

## O=C(O)c1ccc(/C=C/c2ccc(/C=C/c3ccc(C(=O)O)cc3)c(/C=C/c3ccc(C(=O)O)cc3)c2)cc1 [TSB067]
[2]
  Zone of Inhibition: 0 mm
[3]
  Zone of Inhibition: 7 mm
[4]
  Zone of Inhibition: 0 mm
[5]
  Zone of Inhibition: 7.5 mm
[6]
  Zone of Inhibition: 32 mm
[7]
  Zone of Inhibition: 0 mm
[8]
  Zone of Inhibition: 0 mm
[9]
  Zone of Inhibition: 0 mm
[10]
  Zone of Inhibition: 0 mm
[11]
  Zone of Inhibition: 0 mm
[12]
  Zone of Inhibition: 0 mm
[13]
  Zone of Inhibition: 0 mm
[14]
  Zone of Inhibition: 0 mm
[15]
  Zone of Inhibition: 12 mm
[16]
  Zone of Inhibition: 20 mm
[1]
  Zone of Inhibition: 14 mm
[17]
  Zone of Inhibition: 12 mm
[18]
  Zone of Inhibition: 11 mm
[19]
  Zone of Inhibition: 0 mm
[20]
  Zone of Inhibition: 16 mm
[21]
  Zone of Inhibition: 14 mm
E. coli NCTC 10418
  Zone of Inhibition: 6.5 mm
[22]
  Zone of Inhibition: 0 mm
K. pneumoniae NCTC 10896
  Zone of Inhibition: 0 mm
[23]
  Zone of Inhibition: 0 mm
C. albicans ATCC 90028
  Zone of Inhibition: 0 mm

## O=C(O)c1ccc(CCc2ccc(CCc3ccc(C(=O)O)cc3)c(CCc3ccc(C(=O)O)cc3)c2)cc1 [TSB068]
[2]
  Zone of Inhibition: 0 mm
[3]
  Zone of Inhibition: 7 mm
[4]
  Zone of Inhibition: 0 mm
[5]
  Zone of Inhibition: 0 mm
[6]
  Zone of Inhibition: 32 mm
[7]
  Zone of Inhibition: 0 mm
[8]
  Zone of Inhibition: 0 mm
[9]
  Zone of Inhibition: 0 mm
[10]
  Zone of Inhibition: 0 mm
[11]
  Zone of Inhibition: 0 mm
[12]
  Zone of Inhibition: 0 mm
[13]
  Zone of Inhibition: 0 mm
[14]
  Zone of Inhibition: 0 mm
[15]
  Zone of Inhibition: 15 mm
[16]
  Zone of Inhibition: 8 mm
[1]
  Zone of Inhibition: 8 mm
[17]
  Zone of Inhibition: 0 mm
[18]
  Zone of Inhibition: 0 mm
[19]
  Zone of Inhibition: 0 mm
[20]
  Zone of Inhibition: 23 mm
[21]
  Zone of Inhibition: 20 mm
E. coli NCTC 10418
  Zone of Inhibition: 0 mm
[22]
  Zone of Inhibition: 0 mm
K. pneumoniae NCTC 10896
  Zone of Inhibition: 0 mm
[23]
  Zone of Inhibition: 0 mm
C. albicans ATCC 90028
  Zone of Inhibition: 0 mm

## [N-]=[N+]=[N-] [sodium azide, reference compound]
[24]; TA100, negative control 113, 96
  Number of colonies, Positive Control: 350 and 360
[24]; TA1535, negative control 28, 29
  Number of colonies, Positive Control: 600
